Experimental data reported in patent US20170121344A1 (Siga Technologies, Inc., priority 2009, published 2017).
Where two headings read alike, the source gives them in different places.

Tested on: Dengue-2 (Strain New Guinea C)
Experiment: Viral yield assay against Dengue-2 in Vero cells
Assay type: cell-based, Dengue virus
Conditions: Dengue virus
Method: Compounds that were active in the primary screen were tested for activity in viral yield assays. […] Vero cells in 12-well plates were infected with dengue-2 virus at a multiplicity of infection (MOI) of 0.1, treated with compound (or DMSO as a control), incubated at 37° C., harvested 48 hours post infection and titered on Vero cells as described above. The EC50 was calculated through ExcelFit. Activities against other serotypes of dengue virus were determined in a similar way.

[1] = DENV2, viral yield assay, Vero cells, MOI 0.1, 48 hours post infection, read-out: Activity (EC50 in μM) DENV-2
[2] = Vero cells, MOI 0.1, harvested 48 hours post infection, read-out: Activity (EC50 class) against Dengue-2 Virus in Vero cells
[3] = Vero, 48 h, read-out: Activity (EC50 class) against Dengue-2 Virus in Vero cells

Structure (SMILES) | EC50 [2] [µM] | other results
COc1ccc(-c2ccc3c(N)c(C(=O)Nc4ccc(Cl)c(C(F)(F)F)c4)sc3n2)cc1OC [Compound 585, 3-amino-N-[4-chloro-3-(trifluoromethyl)phenyl]-6-(3,4-dimethoxyphenyl)thieno [2,3-b]pyridine-2-carboxamide] |  | EC50 [1]: < 5 µM
CC(C)N1CCc2nc3sc(C(=O)Nc4ccc(OC(F)(F)F)cc4)c(N)c3cc2C1 [Compound 59, 3-Amino-6-isopropyl-5,6,7,8-tetrahydro-thieno[2,3-b][1,6]naphthyridine-2-carboxylic acid (4-trifluoromethoxy-phenyl)-amide] | < 5 | 
CCc1nnc(NC(=O)c2sc3nc4c(cc3c2N)CN(C(C)C)CC4)s1 [Compound 272, 3-Amino-6-isopropyl-5,6,7,8-tetrahydro-thieno[2,3-b][1,6]naphthyridine-2-carboxylic acid (5-ethyl-[1,3,4]thiadiazol-2-yl)-amide] | > 25 | 
CN1CCc2nc3sc(C(=O)Nc4ccc(F)c(F)c4)c(N)c3cc2C1 [Compound 16, 3-Amino-6-methyl-5,6,7,8-tetrahydro-thieno[2,3-b][1,6]naphthyridine-2-carboxylic acid (3,4-difluoro-phenyl)-amide] | < 5 | 
CC1(C)CC(=O)c2cc3c(N)c(C(=O)Nc4ccccc4[N+](=O)[O-])sc3nc2C1 [Compound 222, 3-Amino-7,7-dimethyl-5-oxo-5,6,7,8-tetrahydro-thieno[2,3-b]quinoline-2-carboxylic acid (2-nitro-phenyl)-amide] | > 25 | 
CCc1cccc(NC(=O)c2sc3nc(-c4ccc5c(c4)OCO5)ccc3c2N)c1 [Compound 592, 3-amino-6-(1,3-benzodioxol-5-yl)-N-(3-ethylphenyl)thieno[2,3-b]pyridine-2-carboxamide] |  | EC50 [1]: < 5 µM
Cc1nc2sc(C(N)=O)c(N)c2c(C)c1CC(=O)c1ccccc1 [Compound 72, 3-Amino-4,6-dimethyl-5-(2-oxo-2-phenyl-ethyl)-thieno[2,3-b]pyridine-2-carboxylic acid amide] |  | EC50 [3]: 5 to 25 µM
CCOc1cccc(NC(=O)c2sc3nc(-c4ccc(OC)c(OC)c4)ccc3c2N)c1 [Compound 582, 3-amino-6-(3,4-dimethoxyphenyl)-N-(3-ethoxyphenyl)thieno[2,3-b]pyridine-2-carboxamide] |  | EC50 (DENV2, Vero, 48 h, read-out: Activity (EC50 in μM) DENV-2): < 5 µM
CC1(C)Cc2c(c(N3CCOCC3)nc3sc4c(=O)n(-c5ccc(Cl)c(Cl)c5)cnc4c23)CO1 [Compound 245, 9-(3,4-Dichloro-phenyl)-2,2-dimethyl-5-morpholin-4-yl-1,4-dihydro-2H,9H-3-oxa-7-thia-6,9,11-triaza-benzo[c]fluoren-8-one] | > 25 | 
CCCCNC(=O)c1sc2nc3c(cc2c1NC(C)=O)COC(C)(C)C3 [Compound 237, 3-Acetylamino-7,7-dimethyl-7,8-dihydro-5H-pyrano[4,3-b]thieno[3,2-e]pyridine-2-carboxylic acid butylamide] | > 25 | 
COc1ccc(-c2cc(-c3ccc(F)cc3)nc3sc(C(N)=O)c(N)c23)cc1OC [Compound 54, 3-Amino-4-(3,4-dimethoxy-phenyl)-6-(4-fluoro-phenyl)-thieno[2,3-b]pyridine-2-carboxylic acid amide] | < 5 | 
Cc1cccc(NC(=O)c2sc3nc(-c4ccc(Cl)cc4)ccc3c2N)c1 [Compound 632, 3-amino-6-(4-chlorophenyl)-N-(m-tolyl)thieno[2,3-b]pyridine-2-carboxamide] |  | EC50 [1]: < 5 µM
COc1ccc(-c2ccc3c(N)c(C(=O)Nc4cccc(Cl)c4C)sc3n2)cc1OC [Compound 573, 3-amino-N-(3-chloro-2-methyl-phenyl)-6-(3,4-dimethoxyphenyl)thieno[2,3-b] pyridine-2-carboxamide] |  | EC50 [1]: < 5 µM
CC1(C)CC(=O)c2cc3c(N)c(C(=O)Nc4ccc([N+](=O)[O-])cc4)sc3nc2C1 [Compound 214, 3-Amino-7,7-dimethyl-5-oxo-5,6,7,8-tetrahydro-thieno[2,3-b]quinoline-2-carboxylic acid (4-nitro-phenyl)-amide] | > 25 | 
NC(=O)c1sc2nc(-c3cccs3)cc(-c3ccc(F)cc3)c2c1N [Compound 2, 3-Amino-4-(4-fluoro-phenyl)-6-thiophen-2-yl-thieno[2,3-b]pyridine-2-carboxylic acid amide] | < 5 | 
COc1ccc(-c2ccc3c(N)c(C(=O)Nc4cc(C)ccc4C)sc3n2)cc1OC [Compound 524, 3-amino-6-(3,4-dimethoxyphenyl)-N-(2,5-dimethylphenyl)thieno[2,3-b]pyridine-2-carboxamide] |  | EC50 [1]: < 5 µM
COc1ccnc2sc(C(=O)Nc3nnc(-c4ccccc4)s3)c(N)c12 [Compound 287, 3-amino-4-methoxy-N-(5-phenyl-1,3,4-thiadiazol-2-yl)thieno[2,3-b]pyridine-2-carboxamide] |  | EC50 [1]: 5 to 25 µM
CCN(C(=O)c1sc2nc(C)cc(C)c2c1N)c1ccccc1 [Compound 102, 3-Amino-4,6-dimethyl-thieno[2,3-b]pyridine-2-carboxylic acid ethyl-phenyl-amide] | 5 to 25 | 

Structure (SMILES) | EC50 [2] [µM] | other results
Cc1cccc(NC(=O)c2sc3nc4c(cc3c2N)CCC4)c1C [Compound 179, 3-Amino-6,7-dihydro-5H-cyclopenta[b]thieno[3,2-e]pyridine-2-carboxylic acid (2,3-dimethyl-phenyl)-amide] |  | EC50 [3]: > 25 µM
Nc1c(C(=O)Nc2cc(Cl)ccc2Cl)sc2nc(-c3ccc4c(c3)OCO4)ccc12 [Compound 587, 3-amino-6-(1,3-benzodioxol-5-yl)-N-(2,5-dichlorophenyl)thieno[2,3-b]pyridine-2-carboxamide] |  | EC50 [1]: < 5 µM
Nc1c(C(=O)Nc2cc(C(F)(F)F)ccc2Cl)sc2nc3c(cc12)CCCC3 [Compound 193, 3-Amino-5,6,7,8-tetrahydro-thieno[2,3-b]quinoline-2-carboxylic acid (2-chloro-5-trifluoromethyl-phenyl)-amide] | > 25 | 
NC(=O)c1sc2nc(C3CC3)cc(-c3ccccc3)c2c1N [Compound 8, 3-Amino-6-cyclopropyl-4-phenyl-thieno[2,3-b]pyridine-2-carboxylic acid amide] | < 5 | 
CCN(CC)C(=O)c1sc2nc(C)cc(C)c2c1N [Compound 167, 3-Amino-4,6-dimethyl-thieno[2,3-b]pyridine-2-carboxylic acid diethylamide] | > 25 | 
Cc1cccc(NC(=O)c2sc3nc(N)c(C#N)c(-c4ccc(C(C)C)cc4)c3c2N)c1C [Compound 143, 3,6-Diamino-5-cyano-4-(4-isopropyl-phenyl)-thieno[2,3-b]pyridine-2-carboxylic acid (2,3-dimethyl-phenyl)-amide] | > 25 | 
COc1ccc(NC(=O)c2sc3nc4c(c(-c5cccs5)c3c2N)CN(C)CC4)cc1 [Compound 28, 3-Amino-6-methyl-4-thiophen-2-yl-5,6,7,8-tetrahydro-thieno[2,3-b][1,6]naphthyridine-2-carboxylic acid (4-methoxy-phenyl)-amide] | < 5 | 
COc1cccc(-c2ccc3c(N)c(C(=O)Nc4ccc(F)c(Cl)c4)sc3n2)c1 [Compound 526, 3-amino-N-(3-chloro-4-fluoro-phenyl)-6-(3-methoxyphenyl)thieno[2,3-b] pyridine-2-carboxamide] |  | EC50 [1]: < 5 µM
Nc1c(C(=O)Nc2ccccc2C(F)(F)F)sc2nc3c(cc12)CCCC3 [Compound 254, 3-Amino-5,6,7,8-tetrahydro-thieno[2,3-b]quinoline-2-carboxylic acid (2-trifluoromethyl-phenyl)-amide] | > 25 | 
CN1CCc2nc3sc(C(=O)NCCc4ccccc4)c(N)c3cc2C1 [Compound 267, 3-Amino-6-methyl-5,6,7,8-tetrahydro-thieno[2,3-b][1,6]naphthyridine-2-carboxylic acid phenethyl-amide] | > 25 | 
Cc1cc(C)c(NC(=O)c2sc3nc4c(cc3c2N)C(=O)CCC4)c(C)c1 [Compound 94, 3-Amino-5-oxo-5,6,7,8-tetrahydro-thieno[2,3-b]quinoline-2-carboxylic acid (2,4,6-trimethyl-phenyl)-amide] | 5 to 25 | 
Cc1nc2c(sc3nc4c(cc32)COC(C)(C)C4)c(=O)n1CCc1ccccc1 [Compound 230, 3,8,8-Trimethyl-2-phenethyl-8,9-dihydro-2H,6H-7-oxa-11-thia-2,4,10-triaza-benzo[b]fluoren-1-one] |  | EC50 [3]: > 25 µM
CC(C)N1CCc2nc3sc(C(=O)NCc4ccc5c(c4)OCO5)c(N)c3cc2C1 [Compound 26, 3-Amino-6-isopropyl-5,6,7,8-tetrahydro-thieno[2,3-b][1,6]naphthyridine-2-carboxylic acid (benzo[1,3]dioxol-5-ylmethyl)-amide] |  | EC50 [3]: < 5 µM
Cc1ccc(-c2c3c(nc4sc(C(N)=O)c(N)c24)CCCC3)cc1 [Compound 227, 3-Amino-4-p-tolyl-5,6,7,8-tetrahydro-thieno[2,3-b]quinoline-2-carboxylic acid amide] | > 25 | 
COc1ccc(CNC(=O)c2sc3nc4c(cc3c2N)CN(C)CC4)cc1 [Compound 266, 3-Amino-6-methyl-5,6,7,8-tetrahydro-thieno[2,3-b][1,6]naphthyridine-2-carboxylic acid 4-methoxy-benzylamide] | > 25 | 
CC1(C)Cc2nc3sc(C(=O)NCCCO)c(N)c3cc2CS1 [Compound 253, 3-Amino-7,7-dimethyl-7,8-dihydro-5H-1,6-dithia-9-aza-cyclopenta[b]naphthalene-2-carboxylic acid (3-hydroxy-propyl)-amide] |  | EC50 [3]: > 25 µM
COc1ccc(NC(=O)c2sc3nc4c(cc3c2N)CCC4)cc1 [Compound 184, 3-Amino-6,7-dihydro-5H-cyclopenta[b]thieno[3,2-e]pyridine-2-carboxylic acid (4-methoxy-phenyl)-amide] |  | EC50 [3]: > 25 µM
